Laboratory results from patent publication US20200030342A1, “DEHYDROEPIANDROSTERONE (DHEA) SUPPL[…] FEMALE SEXUAL DESIRE AND FUNCTION IN PRE-[…]” (American Infertility of New York, P.C., priority 2018, published 2020).

Tests used:
[1] = Endocrine evaluation: serum hormone levels before and after DHEA supplementation; format: in vivo, women
Text: (§1) All patients in the study were asked to complete the self-reported Female Sexual Function Index (FSFI) questionnaire^31 prior to initiation to DHEA supplements and again 4-8 weeks later. The patients' fertility treatments were not affected by their participation in this study, in laboratory investigations, and/or timing of procedures. Patients underwent the same standard endocrine evaluations all patients undergo at the Center for Human Reproduction, including measurement of serum androgen levels: DHEA, DHEAS, total (TT) and free testosterone (FT) before, and 4-8 weeks after, initiating 25 mg of oral DHEA supplementation TID. All here presented hormone levels were obtained by commercial assays (LabCorp, Burlington, N.C.). All androgen levels were measured using high-pressure liquid chromatography/tandem mass spectrometry.
The measurement procedures for measuring serum androgen and FSH are conventional. The formulation for an oral dosage of DHEA is conventional.

[2] = Center's experience with DHEA treatment of infertile patients: testosterone levels in response to DHEA or transdermal testosterone; format: in vivo, women
Text: One purpose of DHEA supplementation is raising testosterone levels. In other words, the biologically active hormone is testosterone. Its application, however, has more side effects. But some patients have a hard time converting DHEA to testosterone [Shohat-Tal A, Sen A, Barad D H, Kushnir V, Gleicher N. Genetics of androgen metabolism in women with infertility and hypoandrogenism. Nat Rev Endocrinol 2015; 11(7):429-441] and, therefore, must be treated directly with testosterone. The testosterone dosage is 0.05 mg transdermal by pump between once to 2-times per day for the same time period that DHEA supplementation dosages are taken. The peripheral testosterone levels and SHBG in blood are monitored and adjusted accordingly. Sex hormone binding globulin (SHBG) is a protein that is produced by the liver and binds tightly to the hormones testosterone, dihydrotestosterone (DHT), and estradiol (an estrogen). If patients require testosterone directly, the DHEA supplementation is still continued.

[3] = tested on: premenopausal infertile women; test: Female Sexual Function Index (FSFI) questionnaire before and after DHEA supplementation, observational study; format: in vivo
Protocol: An observational study was conducted in an academically affiliated private fertility center. Patients included 87 premenopausal infertile women, 50 of whom completed the study including the Female Sexual Function Index (FSFI) questionnaires and comprehensive endocrine evaluation before and 4-8 weeks after initiating 25 mg of oral micronized DHEA TID. An example of a FSFI questionnaire is in a FSFI Scoring Appendix at the end of this patent application together with a discussion as to the manner of determining FSFI domain scores and full-scale score, which establish FSFI baselines.
as §1
Pearson correlation was used to investigate relationships between FSFI scores and patient demographics, as well as, hormone levels. Comparisons of FSFI scores and endocrine parameters before—and after—DHEA supplementation were made using paired T-tests. Based on starting FSFI scores patients were further subdivided into quartiles. Patient responses before and after DHEA supplementation from those in lowest and highest quartiles were then compared. Groups were compared using a two-sampled T-test or chi-square test. A P-value <0.05 was considered significant. All analyses were conducted using SAS version 9.4 (SAS Institute Inc. Cary, N.C.).
The individual domain scores and full scale (overall) score of the FSFI can be derived from the computational formula outlined in the table below. For individual domain scores, add the scores of the individual items that comprise the domain and multiply the sum by the domain factor (see below). Add the six domain scores to obtain the full scale score. […] Subject scores can be entered in the right-hand colum.

[4] = Baseline FSFI Score < 25.7, N = 12
[5] = Baseline FSFI Score ≥ 31.9, N = 13
[6] = whole group N=50, DHEA 25 mg TID 4-8 weeks, mean change
[7] = lowest starting FSFI score quartile (<25.7)
[8] = whole group N=50, DHEA 25 mg TID 4-8 weeks, mean change of domain score

## C[C@]12CC[C@H](O)CC1=CC[C@@H]1[C@@H]2CC[C@]2(C)C(=O)CC[C@@H]12 [DHEA, dehydroepiandrosterone]
[1]; [4]
  Δ Hormone: AMH: 0.0 ± 0.6 ng/mL
  Δ Hormone: Cortisol: 2.5 ± 1.6 µg/dL
  Δ Hormone: DHEA: 291.0 ± 227.7 ng/dL
  Δ Hormone: FSH: −3.6 ± 2.6 mIU/mL
  Δ Hormone: Free Testosterone: 1.8 ± 1.3 pg/mL
  Δ Hormone: SHBG: -15.8 ± 41.1 nmol/L
  Δ Hormone: Total Testosterone: 16.4 ± 18.5 ng/dL
[1]; [5]
  Δ Hormone: AMH: 0.1 ± 0.6 ng/mL
  Δ Hormone: Cortisol: -0.4 ± 5.5 µg/dL
  Δ Hormone: DHEA: 275.7 ± 186.6 ng/dL
  Δ Hormone: FSH: −1.6 ± 3.5 mIU/mL
  Δ Hormone: Free Testosterone: 0.5 ± 1.4 pg/mL
  Δ Hormone: SHBG: -21.0 ± 51.6 nmol/L
  Δ Hormone: Total Testosterone: 11.8 ± 18.6 ng/dL
[1]; [6]
  Δ Hormone: AMH: 0.0 ng/mL
  Δ Hormone: Cortisol: 1.3 µg/dL
  Δ Hormone: FSH: −2.6 mIU/mL
  Δ Hormone: Free Testosterone: 1.4 pg/mL
  Δ Hormone: SHBG: -24.0 nmol/L
  Δ Hormone: Total Testosterone: 15.1 ng/dL
[1]; whole group N=50, DHEA 25 mg TID 4-8 weeks, mean change of serum level
  Δ Hormone: DHEA: 235.1 ng/dL
[1]; whole study group
  AMH levels, change: no change
  Cortisol levels, change: no change
[1]; whole study group, baseline 10.3±5.4 mIU/mL
  FSH levels, decrease from baseline: 2.6±4.4 mIU/mL
[1]; whole study group, baseline 92.7±43.2 nmol/L
  SHBG, decrease from baseline: 24.0 ± 39.4 nmol/L
[1]; whole study group, each P<0.0001
  All serum androgen levels (DHEA, DHEAS, TT, FT), change from baseline: increased
[2]; infertile patients overall, a little more among African-descent women
  Patients who do not raise their testosterone levels in response to DHEA supplementation: less than 5%
[3]; [4]
  Δ Arousal: 1.3±1.7
  Δ Desire: 1.0±0.8
  Δ Lubrication: 0.8±2.3
  Δ Orgasm: 1.0±2.3
  Δ Pain: 0.9±2.3
  Δ Satisfaction: 0.9±1.3
[3]; [5]
  Δ Arousal: −0.2 ± 0.5
  Δ Desire: −0.1 ± 0.6
  Δ Lubrication: −0.1 ± 0.6
  Δ Orgasm: −0.5 ± 1.1
  Δ Pain: −0.1 ± 0.4
  Δ Satisfaction: 0.0 ± 0.7
[3]; highest starting FSFI quartile, Baseline FSFI Score ≥ 31.9, N = 13, DHEA 25 mg TID 4-8 weeks
  Δ FSFI Score: −1.0 ± 2.7
[3]; lowest starting FSFI quartile, Baseline FSFI Score < 25.7, N = 12, DHEA 25 mg TID 4-8 weeks
  Δ FSFI Score: 6.1±8.0
[3]; [7]
  Improvement in domain arousal: 46%
  Improvement in domain desire: 40%
  Improvement in domain lubrication: 33%
  Improvement in domain orgasm: 54%
  Improvement in domain pain: 25%
  Improvement in domain satisfaction: 24%
  Increase in total FSFI score: 34%
[3]; [6]
  Δ Arousal: Confidence: 0.4
  Δ Arousal: Frequency: 0.3
  Δ Arousal: Level: 0.4
  Δ Arousal: Satisfaction: 0.4
  Δ Desire: Frequency: 0.5
  Δ Desire: Level: 0.5
  Δ Lubrication: Difficulty (first line): 0.3
  Δ Lubrication: Difficulty (second line, after Maintaining): 0.2
  Δ Lubrication: Frequency: 0.3
  Δ Lubrication: Maintaining: 0.3
  Δ Orgasm: Difficulty: 0.1
  Δ Orgasm: Frequency: 0.0
  Δ Orgasm: Satisfaction: 0.1
  Δ Pain: During: 0.3
  Δ Pain: Following: 0.2
  Δ Pain: Level: 0.0
  Δ Satisfaction: Closeness: 0.3
  Δ Satisfaction: Overall: 0.3
  Δ Satisfaction: Relationship: 0.2
[3]; [8]
  Δ Arousal: 0.5
  Δ Desire: 0.6
  Δ Lubrication: 0.4
  Δ Orgasm: 0.1
  Δ Pain: 0.2
  Δ Satisfaction: 0.3
[3]; whole group, 50 premenopausal infertile women, oral micronized DHEA 25 mg TID, before vs 4-8 weeks after, mean
  Δ FSFI Score: 2.0
[3]; whole study group
  Domain score for arousal, increase: 12%
  Domain score for desire, increase: 17%
  Domain score for orgasm, change: no significant changes
  Domain score for pain, change: no significant changes
  Domain score for satisfaction, change: no significant changes
[3]; whole study group, P=0.0551
  Domain score for lubrication, trend towards improvement: 8%
[3]; whole study group, following DHEA supplementation
  FSFI score increase: 7%
[3]; whole study group, from baseline 27.2±6.9
  FSFI score after DHEA supplementation: 29.2±5.6

## C[C@]12CC[C@H]3[C@@H](CCC4=CC(=O)CC[C@@]43C)[C@@H]1CC[C@@H]2O [testosterone]
[2]; 0.05 mg transdermal by pump once to 2-times per day, same time period
  Testosterone levels achieved in patients not responding to DHEA: very similar testosterone levels are achieved
